Data as given in paper PMC5025885, “Identification of Doxorubicin as an Inhibitor of the IRE1α-XBP1 Axis of the Unfolded Protein Response” (Scientific Reports, 2016).

Target: T1, IRE1α (Homo sapiens, UniProt O75460)
T1 construct: gene ERN1
Experiment: cell-free in vitro IRE1α RNase assay on XBP1 and BLOC1S1 RNA substrates
Format: biochemical

T1 sequence (O75460 19-977): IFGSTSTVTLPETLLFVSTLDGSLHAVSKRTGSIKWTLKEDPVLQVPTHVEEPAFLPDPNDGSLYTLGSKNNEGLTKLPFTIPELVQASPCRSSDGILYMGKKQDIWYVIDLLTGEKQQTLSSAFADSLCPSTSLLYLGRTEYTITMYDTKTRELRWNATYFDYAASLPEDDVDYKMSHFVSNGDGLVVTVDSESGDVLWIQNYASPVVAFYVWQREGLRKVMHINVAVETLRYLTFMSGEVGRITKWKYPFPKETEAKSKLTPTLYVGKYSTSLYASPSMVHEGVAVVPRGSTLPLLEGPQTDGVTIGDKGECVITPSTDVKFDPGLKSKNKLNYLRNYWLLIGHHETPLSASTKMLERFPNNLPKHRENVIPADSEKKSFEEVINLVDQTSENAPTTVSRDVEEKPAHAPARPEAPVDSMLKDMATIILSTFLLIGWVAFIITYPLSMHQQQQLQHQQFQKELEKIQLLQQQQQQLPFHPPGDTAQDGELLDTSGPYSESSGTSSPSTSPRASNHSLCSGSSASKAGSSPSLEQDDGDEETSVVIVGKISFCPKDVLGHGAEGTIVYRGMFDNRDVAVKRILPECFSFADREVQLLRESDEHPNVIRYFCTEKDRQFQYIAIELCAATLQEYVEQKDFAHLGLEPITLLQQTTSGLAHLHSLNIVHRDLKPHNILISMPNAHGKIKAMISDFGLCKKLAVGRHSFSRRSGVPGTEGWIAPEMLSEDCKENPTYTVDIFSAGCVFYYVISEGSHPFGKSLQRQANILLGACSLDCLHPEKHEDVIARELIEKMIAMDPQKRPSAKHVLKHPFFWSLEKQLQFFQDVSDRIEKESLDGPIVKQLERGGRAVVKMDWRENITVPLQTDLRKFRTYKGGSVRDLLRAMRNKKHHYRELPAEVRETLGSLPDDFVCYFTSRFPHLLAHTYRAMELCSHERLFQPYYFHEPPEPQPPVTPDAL

## COc1cccc2c1C(=O)c1c(O)c3c(c(O)c1C2=O)C[C@@](O)(C(=O)CO)C[C@@H]3O[C@H]1C[C@H](N)[C@H](O)[C@H](C)O1 [doxorubicin]
  IC50: ~20 µM
